Experimental data as given in EP0171702A1, “Benzoxazinone derivatives, preparation and use” (BEECHAM GROUP PLC, priority 1984, dated 1986).
Where two headings read alike, the source gives them in different places.

Columns and labels:
conscious cats = assay: Inotropic activity in conscious cats; type: in vivo; details: for Peak dp/dt: maximal percentage change in dp/dt of left ventricular pressure over initial baseline level; for Peak HR: maximal percentage change in heart rate over initial baseline level; for dp/dt: HR: ratio of peak dp/dt change to peak HR change
Procedure: Male 3-4.5 kg cats, bred in-house are implanted with a polythene cannula in the left ventricle which is exte- riorised at the back of the neck by means of a small teflon valve. Recordings are made via a pressure transducer attached by means of a length of polyethylene tubing to the cat neck valve.
During an initial 1 hour stabilisation period, steady baseline recordings are obtained. The test compound contained in a gelatine capsule, is then administered orally. Recording is normally carried out for 6 hours post dosing.
The maximal percentage change in dp/dt over initial baseline level is used as the index of inotropic activity. Chronotropic activity is taken as the maximal percentage change in HR over the initial baseline level.

[1] = tested on: electrically paced left atrium; assay: Isolated rat atria: tension of the electrically paced left atrium; details: Rattus norvegicus, Krebs solution at 32°C; for Emax: maximal effect relative to isoprenaline maximum (isoprenaline = 1), read-out: Tension Intrinsic Activity; for EC50: molar concentration producing 50% of the compound's own maximum response
Procedure: (§1) Sprague-Dawley male rats (300-400g) are killed and the right and left atria dissected out independently and mounted on a combined tissue holder/electrode. […] The rate of the spontaneously beating right atrium (via an isometric transducer and a ratemeter) and the tension of the electrically paced left atrium (via an isometric transducer) are recorded on a M19 chart recorder.
(§2) After an initial stabilization period, the tissues are exposed to a maximal concentration of isoprenaline (10-^7M). The tissues are then washed several times until rate and tension return to baseline level. A dose-response curve to the test compound is then carried out.
(§3) Responses to each concentration of test compound are expressed as a percentage of the maximal responses to isoprenaline. Results are given in the form of (a) intrinsic activity (maximal effect of test compound with respect to isoprenaline maximum, i.e. isoprenaline intrinsic activity = 1) and (b) EC50 (the molar concentration at which the test compound produces 50% of its own maximum response).

[2] = tested on: spontaneously beating right atrium; assay: Isolated rat atria: rate of the spontaneously beating right atrium; details: Rattus norvegicus, Krebs solution at 32°C; for Emax: maximal effect relative to isoprenaline maximum (isoprenaline = 1), read-out: Rate Intrinsic Activity; for EC50: molar concentration producing 50% of the compound's own maximum response
Procedure: as §1, §2, §3

Male Sprague-Dawley rats = assay: Effect on energy expenditure of rats; type: in vivo; details: Rattus norvegicus, po, percentage of rate of rats dosed with water; for response vs control in vivo at 7.5 mg/kg: 7.5 mg/kg p.o.; for response vs control in vivo at 4 mg/kg: 4.0 mg/kg p.o.; for response vs control in vivo at 7.8 mg/kg: 7.8 mg/kg p.o.; for response vs control in vivo at 4.1 mg/kg: 4.1 mg/kg p.o.
Procedure: Water was provided ad lib at all times. The compounds were administered orally in water to 3 or 4 rats. A further 4 rats were dosed orally with water. The rats were placed in boxes through which air was drawn and the oxygen content of the air leaving the boxes was measured. The energy expenditure of the rats was calculated for 3 hours and for 21 hours after dosing from the volume of air leaving the boxes and its oxygen content, following the principles described by J.B. de V. Weir, J. Physiol. (London) 109, 1-9 (1949). The results are expressed as a percentage of the rate of energy expenditure of the rats dosed with water.

Female CFLP mice = assay: Hypoglycaemic activity (subcutaneous glucose load, blood glucose curve); type: in vivo; details: glucose 1 g/kg subcutaneously, 2 hour period, compared with control mice given water
Procedure: Female CFLP mice, weighing approximately 25 g, were fasted for 24 hours prior to the study. The compounds under study were administered orally as an aqueous solution to each of 6 mice. 30 minutes later a blood sample (20 ul) was obtained from the tail for the analysis of blood glucose. Immediately after taking this blood sample, glucose (1 g/kg body weight) was administered subcutaneously to each mouse. 6 mice were given water as a control. Blood samples were then obtained from each mouse at 30 minute intervals for 120 minutes.
Compounds that produced a significant (p<0.05) reduction of blood glucose, compared with control mice qiven water, at any time interval were considered active. The area under the blood glucose curve over the 2 hour period after the administration of the glucose was calculated for each compound and compared with the value for control animals.

[3] = 3 h, 0-3h after dosing, read-out: Mean Energy Expenditure 0-3h
[4] = 21 h, 0-21h after dosing, read-out: Mean Energy Expenditure 0-21h

Row | SMILES | Peak dp/dt (conscious cats; 1 mg/kg p.o.) [%] | Peak HR (conscious cats; 1 mg/kg p.o.) [%] | dp/dt: HR (conscious cats; 1 mg/kg p.o.) | Emax [1] [%] | EC50 [1] [nM] | Emax [2] [%] | EC50 [2] [nM] | response vs control in vivo at 7.5 mg/kg (Male Sprague-Dawley rats; [3]) [%] | response vs control in vivo at 7.5 mg/kg (Male Sprague-Dawley rats; [4]) [%] | % Reduction in area under blood glucose curve (Female CFLP mice; 2.5 μmol/kg orally) [%] | response vs control in vivo at 4 mg/kg (Male Sprague-Dawley rats; [3]) [%] | response vs control in vivo at 4 mg/kg (Male Sprague-Dawley rats; [4]) [%] | Peak dp/dt (conscious cats; 0.2 mg/kg p.o.) [%] | Peak HR (conscious cats; 0.2 mg/kg p.o.) [%] | response vs control in vivo at 7.8 mg/kg (Male Sprague-Dawley rats; [3]) [%] | response vs control in vivo at 7.8 mg/kg (Male Sprague-Dawley rats; [4]) [%] | % Reduction in area under blood glucose curve (Female CFLP mice; 10 μmol/kg orally) [%] | response vs control in vivo at 4.1 mg/kg (Male Sprague-Dawley rats; [3]) [%] | response vs control in vivo at 4.1 mg/kg (Male Sprague-Dawley rats; [4]) [%] | % Reduction in area under blood glucose curve (Female CFLP mice; 25 μmol/kg orally) [%]
1 | CC(COc1ccc2c(c1)OCC(=O)N2)NCC(O)c1ccc(O)cc1 (stereo not shown) [Example 1, 7-[2-[2-(4-hydroxyphenyl)-2-hydroxyethylamino]-2-methylethoxy]-2H-1,4-benzoxazin-3-(4H)-one] | 230 | 46 | 5.0 | 97 | 21 | 97 | 6.2 | – | – | – | – | – | – | – | – | – | – | – | – | –
2 | CC(COc1ccc2c(c1)OCC(=O)N2)NCC(O)c1cccc(Cl)c1 (stereo not shown) [Example 2, 7-[2-[2-(3-Chlorophenyl)-2-hydroxyethylamino]-2-methyl-ethoxy]-2H-1,4-benzoxazin-3-(4H)-one] | – | – | – | 18 | 85 | 44 | 55 | 128 | 110 | 22 | – | – | – | – | – | – | – | – | – | –
3 | CC(COc1ccc2c(c1)OCC(=O)N2)NCC(O)COc1ccc(O)cc1 (stereo not shown) [Example 3, 7-[2-[3-(4-Hydroxyphenoxy)-2-hydroxypropylamino]-2-methylethoxy]-2H-1,4-benzoxazin-3-(4H)-one] | 95 | 13 | 7.3 | 52 | 21 | 72 | 5.5 | – | – | 3 | 108 | 105 | 23 | 0 | – | – | – | – | – | –
4 | CC(COc1ccc2c(c1)NC(=O)CO2)NCC(O)COc1ccc(O)cc1 (stereo not shown) [Example 4, 6-[2-[3-(4-Hydroxyphenoxy)-2-hydroxypropylamino]-2-methylethoxy]-2H-1,4-benzoxazin-3-(4H)-one] | 50 | 36 | 1.4 | 40 | 50 | 89 | 14 | – | – | – | – | – | – | – | 128 | 119 | – | – | – | –
5 | CC(COc1ccc2c(c1)NC(=O)CO2)NCC(O)c1cccc(Cl)c1 (stereo not shown) [Example 6, 6-[2-[2-(3-Chlorophenyl)-2-hydroxyethylamino]-2-methylethoxy]-2H-1,4-benzoxazin-3-(4H)-one] | – | – | – | 7 | 300 | 66 | 25 | 125 | 105 | – | – | – | – | – | – | – | 29 | – | – | –
6 | CC(COc1ccc2c(c1)NC(=O)CO2)NCC(O)c1ccc(Cl)c(Cl)c1 (stereo not shown) [Example 7, 6-[2-[2-(3,4-Dichlorophenyl)-2-hydroxyethylamino]-2-methylethoxy]-2H-1,4-benzoxazin-3-(4H)-one] | – | – | – | 14 | 45 | 50 | 36 | – | – | – | – | – | – | – | – | – | – | 149 | 107 | 11
